Patent publication US20240252454A1, “COMPOSITION COMPRISING AN INHIBITOR OF MITOCHONDRIAL TRANSCRIPTION” (LEAD DISCOVERY CENTER GMBH, priority 2021, published 2024)

How the values were obtained:
Assay in all cases: SRB assay, IMT combined with inhibitor
Type in all cases: cell-based
A2780 = A2780 (ovary); concentration series of the labelled inhibitor + fixed concentration of IMT (3S)-1-[(2R)-2-[4-(2-chloro-4-fluoro-phenyl)-2-oxo-chromen-7-yl]oxypropanoyl]piperidine-3-carboxylic acid (Table 3: 40 nM, 120 h); negative=synergistic, positive=antagonistic
DU145 = DU145 (prostate); concentration series of the labelled inhibitor + fixed concentration of IMT (3S)-1-[(2R)-2-[4-(2-chloro-4-fluoro-phenyl)-2-oxo-chromen-7-yl]oxypropanoyl]piperidine-3-carboxylic acid (Table 3: 40 nM, 120 h); negative=synergistic, positive=antagonistic
Description: (§1) Solforhodamine B assay is carried out as described in Voigt W. (2005) Sulforhodamine B Assay and Chemosensitivity. (Methods in Molecular Medicine™, vol 110. Humana Press. https://doi.org/10.1385/1-59259-869-2:039).
(§2) The determination of changes in cellular biomass was based on the Solforhodamine B assay format, carried out as described in Voigt W. (2005) Sulforhodamine B Assay and Chemosensitivity. (Methods in Molecular Medicine™, vol 110. Humana Press. https://doi.org/10.1385/1-59259-869-2:039).
(§3) All in vitro cell culture experiments were carried out under near physiological glucose concentrations (5 mM) in at least two independent replicates.
(§4) First, 30 different cell lines from 14 different tissue types were tested in the SRB assay format. The cells were examined individually for changes in growth over a period of 120 hours with dilution series of both inhibitors. Untreated cells were used as a negative control group. Subsequently, a dilution series of the respective MAPK signalling pathway SOCs was treated in combination with a fixed concentration of 40 nM (3S)-1-[(2R)-2-[4-(2-chloro-4-fluoro-phenyl)-2-oxo-chromen-7-yl]oxypropanoyl]piperidine-3-carboxylic acid.

HT1080 = HT1080 (connective tissue); concentration series of the labelled inhibitor + fixed concentration of IMT (3S)-1-[(2R)-2-[4-(2-chloro-4-fluoro-phenyl)-2-oxo-chromen-7-yl]oxypropanoyl]piperidine-3-carboxylic acid (Table 3: 40 nM, 120 h); negative=synergistic, positive=antagonistic
Description: as §1, §2, §3, §4

HCT15 = HCT15 (colon); concentration series of the labelled inhibitor + fixed concentration of IMT (3S)-1-[(2R)-2-[4-(2-chloro-4-fluoro-phenyl)-2-oxo-chromen-7-yl]oxypropanoyl]piperidine-3-carboxylic acid (Table 3: 40 nM, 120 h); negative=synergistic, positive=antagonistic
Description: as §1, §2, §3, §4

HELA = HELA (cervix); concentration series of the labelled inhibitor + fixed concentration of IMT (3S)-1-[(2R)-2-[4-(2-chloro-4-fluoro-phenyl)-2-oxo-chromen-7-yl]oxypropanoyl]piperidine-3-carboxylic acid (Table 3: 40 nM, 120 h); negative=synergistic, positive=antagonistic
Description: as §1, §2, §3, §4

SKMEL5 = SKMEL5 (skin); concentration series of the labelled inhibitor + fixed concentration of IMT (3S)-1-[(2R)-2-[4-(2-chloro-4-fluoro-phenyl)-2-oxo-chromen-7-yl]oxypropanoyl]piperidine-3-carboxylic acid (Table 3: 40 nM, 120 h); negative=synergistic, positive=antagonistic
Description: as §1, §2, §3, §4

IMR90 = IMR90 (lung); concentration series of the labelled inhibitor + fixed concentration of IMT (3S)-1-[(2R)-2-[4-(2-chloro-4-fluoro-phenyl)-2-oxo-chromen-7-yl]oxypropanoyl]piperidine-3-carboxylic acid (Table 3: 40 nM, 120 h); negative=synergistic, positive=antagonistic
Description: as §1, §2, §3, §4

KASUMI-1 = KASUMI-1 (hematological); concentration series of the labelled inhibitor + fixed concentration of IMT (3S)-1-[(2R)-2-[4-(2-chloro-4-fluoro-phenyl)-2-oxo-chromen-7-yl]oxypropanoyl]piperidine-3-carboxylic acid (Table 3: 40 nM, 120 h); negative=synergistic, positive=antagonistic
Description: as §1, §2, §3, §4

SW620 = SW620 (colon); concentration series of the labelled inhibitor + fixed concentration of IMT (3S)-1-[(2R)-2-[4-(2-chloro-4-fluoro-phenyl)-2-oxo-chromen-7-yl]oxypropanoyl]piperidine-3-carboxylic acid (Table 3: 40 nM, 120 h); negative=synergistic, positive=antagonistic
Description: as §1, §2, §3, §4

JAR = JAR (placenta); concentration series of the labelled inhibitor + fixed concentration of IMT (3S)-1-[(2R)-2-[4-(2-chloro-4-fluoro-phenyl)-2-oxo-chromen-7-yl]oxypropanoyl]piperidine-3-carboxylic acid (Table 3: 40 nM, 120 h); negative=synergistic, positive=antagonistic
Description: as §1, §2, §3, §4

COLO205 = COLO205 (colon); concentration series of the labelled inhibitor + fixed concentration of IMT (3S)-1-[(2R)-2-[4-(2-chloro-4-fluoro-phenyl)-2-oxo-chromen-7-yl]oxypropanoyl]piperidine-3-carboxylic acid (Table 3: 40 nM, 120 h); negative=synergistic, positive=antagonistic
Description: as §1, §2, §3, §4

SKMEL28 = SKMEL28 (skin); concentration series of the labelled inhibitor + fixed concentration of IMT (3S)-1-[(2R)-2-[4-(2-chloro-4-fluoro-phenyl)-2-oxo-chromen-7-yl]oxypropanoyl]piperidine-3-carboxylic acid (Table 3: 40 nM, 120 h); negative=synergistic, positive=antagonistic
Description: as §1, §2, §3, §4

HT29 = HT29 (colon); concentration series of the labelled inhibitor + fixed concentration of IMT (3S)-1-[(2R)-2-[4-(2-chloro-4-fluoro-phenyl)-2-oxo-chromen-7-yl]oxypropanoyl]piperidine-3-carboxylic acid (Table 3: 40 nM, 120 h); negative=synergistic, positive=antagonistic
Description: as §1, §2, §3, §4

With `CC(C)Nc1cc(-c2c[nH]c(C(=O)N[C@H](CO)c3cccc(Cl)c3)c2)c(Cl)cn1` [Ulixertinib] the “difference between the calculated combinatorial index (BLISS) and the observed combinatorial effect” value (A2780) was −0.0025, the “difference between the calculated combinatorial index (BLISS) and the observed combinatorial effect” value (DU145) was 0.0554 and the “difference between the calculated combinatorial index (BLISS) and the observed combinatorial effect” value (HT1080) was −0.0011. The “difference between the calculated combinatorial index (BLISS) and the observed combinatorial effect” value (HCT15) was −0.0215, the “difference between the calculated combinatorial index (BLISS) and the observed combinatorial effect” value (HELA) was −0.0117 and the “difference between the calculated combinatorial index (BLISS) and the observed combinatorial effect” value (SKMEL5) was −0.0542. The “difference between the calculated combinatorial index (BLISS) and the observed combinatorial effect” value (IMR90) was 0.0678, the “difference between the calculated combinatorial index (BLISS) and the observed combinatorial effect” value (KASUMI-1) was 0.0068 and the “difference between the calculated combinatorial index (BLISS) and the observed combinatorial effect” value (SW620) was 0.0256. The “difference between the calculated combinatorial index (BLISS) and the observed combinatorial effect” value (JAR) was 0.0116, the “difference between the calculated combinatorial index (BLISS) and the observed combinatorial effect” value (COLO205) was 0.0384 and the “difference between the calculated combinatorial index (BLISS) and the observed combinatorial effect” value (SKMEL28) was 0.0022. For the same compound, the “difference between the calculated combinatorial index (BLISS) and the observed combinatorial effect” value (HT29) was 0.0702.
